The source of these data is US9573899B2, “USP7 inhibitor compounds and methods of use” (Genentech, Inc., priority 2015, dated 2017).

Experiment [1] addresses T1, USP7, full-length, native C-Terminus (Homo sapiens, UniProt Q93009).
T1 construct: USP7, full-length, native C-Terminus, 0.2 nM
Nature of the experiment: Biochemical USP7 assay with Ubiquitin-Rho110 substrate, compounds pre-incubated with USP7 (USP7_Ub-Rho preInc). Particulars: compounds pre-mixed with USP7, 1 hour incubation, before substrate; read-out: USP7 Ub-Rho preInc (IC50). Here is the method: (§1) Biochemical USP7 assays using Ubiquitin-Rho110 as a substrate: The final assay conditions were as follows: The Reaction Buffer consisted of: 50 mM Tris (pH 7.5), 0.01% (v/v) Triton X-100, 2.5 mM Dithiothreitol, 0.1% (w/v) bovine gamma globulin (Sigma cat #G5009-25G); USP7, full-length, native C-Terminus, 0.2 nM; the substrate, Ubiquitin-Rho110 (Boston Biochem cat #U-555), 1 uM. Reactions were carried out for 1 hour at room temperature, in black 20 μL volume polystyrene ProxiPlate 384 F Plus® (PerkinElmer cat #6008260).
(§2) Test compounds, including a control USP7 inhibitor (Ub-aldehyde, Boston Biochem cat #U-201) were serially diluted in DMSO, in 384 well clear V-bottom polypropylene plates (Greiner cat #781280). Compounds in DMSO were diluted 10-fold into Reaction Buffer, to achieve 3-fold the final desired concentration. The substrate, Ubiquitin-Rho110 (Boston Biochem cat #U-555), was prepared at 3 μM (3-fold the final concentration) and 5 ul was dispensed into the reaction plate. 5 ul of the compounds (diluted in Reaction Buffer at 3-fold the final concentration) were transferred to the reaction plate. 5 ul of 0.6 nM USP7 (diluted in Reaction Buffer at 3-fold the final concentration) was transferred to the reaction plate to initiate the reaction. After 1 hour incubation at room temperature the reaction was quenched by the addition of 5 ul of 400 mM acetic acid. The enzymatic product was measured by quantifying the fluorescence signal of cleaved Rhodamine-110 using excitation at 485 nm and emission at 535 nm. When pre-incubation of USP7 with compounds was required, the order of addition of reagents was modified to pre-mix the compounds with USP7 (with a 1 hour incubation period), prior to the addition of the substrate and the initiation of the reaction period. Percentage inhibition values were calculated relative to a no enzyme control and a uninhibited enzyme control. Curve fitting and IC50 calculations were carried out using Genedata Screener software.

In experiment [2] the target is T1, USP7, full-length, native C-Terminus. Kind of experiment: Biochemical USP7 assay with Ubiquitin-Rho110 substrate (USP7_Ub-Rho110 Fluor). The note with it: no pre-incubation; 1 hour reaction at room temperature; read-out: USP7 Ub-Rho110 Fluor (IC50). The procedure:
as §1, §2

Another experiment addresses T2, USP7 (Homo sapiens, UniProt Q93009).
T2 construct: USP7, full-length, native C-Terminus, 0.2 nM
Kind of experiment: Ub-Rho110 DUB assay, Table 2, USP7. The format is biochemical. Particulars: for selectivity of antagonism of USP7 catalytic activity over the DUBs evaluated: conclusion from Table 2 (USP7, USP7 cat, USP47, USP5).

For another experiment, the target named is USP7 catalytic domain (Homo sapiens, UniProt Q93009). Nature of the experiment: Ub-Rho110 DUB assay, Table 2, USP7 catalytic domain. The format is biochemical. Particulars: read-out: Ub-Rho110 IC50, USP7 cat.
A further experiment deals with T3, USP47 (Homo sapiens, UniProt Q96K76).
T3 sequence (Q96K76 1-1375): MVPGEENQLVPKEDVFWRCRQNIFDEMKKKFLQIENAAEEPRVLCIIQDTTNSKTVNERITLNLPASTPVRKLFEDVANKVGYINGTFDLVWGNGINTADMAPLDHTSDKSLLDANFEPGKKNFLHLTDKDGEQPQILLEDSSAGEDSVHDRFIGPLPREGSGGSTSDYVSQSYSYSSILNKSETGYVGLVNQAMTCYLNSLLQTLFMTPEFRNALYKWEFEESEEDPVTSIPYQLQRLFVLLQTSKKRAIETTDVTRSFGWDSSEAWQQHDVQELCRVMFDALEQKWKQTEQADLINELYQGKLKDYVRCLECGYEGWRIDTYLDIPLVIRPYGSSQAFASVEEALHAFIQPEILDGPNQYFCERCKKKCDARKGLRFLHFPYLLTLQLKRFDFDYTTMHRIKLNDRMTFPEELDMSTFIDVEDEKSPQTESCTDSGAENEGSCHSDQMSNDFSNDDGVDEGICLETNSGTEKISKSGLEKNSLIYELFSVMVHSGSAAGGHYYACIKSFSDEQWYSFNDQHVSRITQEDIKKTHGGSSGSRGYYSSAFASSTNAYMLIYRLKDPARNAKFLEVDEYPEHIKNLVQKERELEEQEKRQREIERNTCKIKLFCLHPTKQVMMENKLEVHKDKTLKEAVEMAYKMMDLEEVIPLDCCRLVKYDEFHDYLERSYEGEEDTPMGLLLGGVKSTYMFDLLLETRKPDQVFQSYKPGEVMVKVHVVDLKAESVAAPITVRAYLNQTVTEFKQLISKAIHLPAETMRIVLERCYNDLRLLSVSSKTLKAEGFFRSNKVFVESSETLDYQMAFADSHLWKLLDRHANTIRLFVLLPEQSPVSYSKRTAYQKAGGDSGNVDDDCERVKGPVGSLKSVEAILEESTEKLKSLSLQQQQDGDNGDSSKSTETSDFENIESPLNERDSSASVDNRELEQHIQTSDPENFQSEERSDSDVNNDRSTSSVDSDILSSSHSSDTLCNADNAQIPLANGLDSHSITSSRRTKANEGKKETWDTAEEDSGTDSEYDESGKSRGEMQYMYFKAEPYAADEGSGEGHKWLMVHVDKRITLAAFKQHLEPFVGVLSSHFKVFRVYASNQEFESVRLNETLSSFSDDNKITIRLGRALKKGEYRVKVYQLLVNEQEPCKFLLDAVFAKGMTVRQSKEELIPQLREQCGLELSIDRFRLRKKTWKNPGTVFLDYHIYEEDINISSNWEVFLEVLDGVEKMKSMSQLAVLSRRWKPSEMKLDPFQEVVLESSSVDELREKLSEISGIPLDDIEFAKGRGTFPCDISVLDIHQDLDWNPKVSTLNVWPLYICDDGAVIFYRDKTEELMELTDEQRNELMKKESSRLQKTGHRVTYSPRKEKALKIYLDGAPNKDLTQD
Nature of the experiment: Ub-Rho110 DUB assay, Table 2, USP47. Format: biochemical.

The test system of experiment [3] is p53 and p21 in HCT116 colon cancer cell lines. Nature of the experiment: Western blot of p53 and p21 in isogenic HCT116 cell lines (FIG. 2A). The format is cell-based, Human. The note with it: isogenic HCT116: wild-type, USP7 null. Here is the method:
In 24-well plates, 0.10-0.15×10^6 (adherent) or 0.5×10^6 (suspension) cells were treated with 15 μM or 2.5 μM compounds, respectively, for 24 h in low serum prior to lysis for Western Blot analysis.

Another experiment has as its target T4, USP5 (Homo sapiens, UniProt P45974).
T4 sequence (P45974 1-858): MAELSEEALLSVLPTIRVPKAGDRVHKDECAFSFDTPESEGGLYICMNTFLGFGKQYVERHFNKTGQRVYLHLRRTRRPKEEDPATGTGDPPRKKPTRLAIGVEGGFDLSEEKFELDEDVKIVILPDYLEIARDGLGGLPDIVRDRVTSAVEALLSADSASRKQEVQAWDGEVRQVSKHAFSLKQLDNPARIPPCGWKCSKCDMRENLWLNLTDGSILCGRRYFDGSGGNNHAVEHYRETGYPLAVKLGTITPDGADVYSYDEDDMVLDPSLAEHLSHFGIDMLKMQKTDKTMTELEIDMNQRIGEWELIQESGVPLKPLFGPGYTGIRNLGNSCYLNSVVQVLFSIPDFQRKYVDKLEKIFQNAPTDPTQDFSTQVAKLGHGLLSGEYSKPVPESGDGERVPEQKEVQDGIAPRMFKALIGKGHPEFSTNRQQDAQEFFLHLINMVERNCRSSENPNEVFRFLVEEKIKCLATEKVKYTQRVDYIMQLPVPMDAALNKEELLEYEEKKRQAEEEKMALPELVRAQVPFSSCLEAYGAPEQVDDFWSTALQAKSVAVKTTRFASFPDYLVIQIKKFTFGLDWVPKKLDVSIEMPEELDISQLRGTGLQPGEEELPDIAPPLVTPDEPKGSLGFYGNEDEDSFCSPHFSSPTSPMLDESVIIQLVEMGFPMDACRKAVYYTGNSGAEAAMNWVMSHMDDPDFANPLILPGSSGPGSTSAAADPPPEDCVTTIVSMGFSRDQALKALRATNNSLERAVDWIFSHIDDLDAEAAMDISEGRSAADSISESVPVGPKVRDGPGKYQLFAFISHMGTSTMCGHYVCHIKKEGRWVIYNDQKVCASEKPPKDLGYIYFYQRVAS
Kind of experiment: Ub-Rho110 DUB assay, Table 2, USP5.

T2 sequence (Q93009 whole entry): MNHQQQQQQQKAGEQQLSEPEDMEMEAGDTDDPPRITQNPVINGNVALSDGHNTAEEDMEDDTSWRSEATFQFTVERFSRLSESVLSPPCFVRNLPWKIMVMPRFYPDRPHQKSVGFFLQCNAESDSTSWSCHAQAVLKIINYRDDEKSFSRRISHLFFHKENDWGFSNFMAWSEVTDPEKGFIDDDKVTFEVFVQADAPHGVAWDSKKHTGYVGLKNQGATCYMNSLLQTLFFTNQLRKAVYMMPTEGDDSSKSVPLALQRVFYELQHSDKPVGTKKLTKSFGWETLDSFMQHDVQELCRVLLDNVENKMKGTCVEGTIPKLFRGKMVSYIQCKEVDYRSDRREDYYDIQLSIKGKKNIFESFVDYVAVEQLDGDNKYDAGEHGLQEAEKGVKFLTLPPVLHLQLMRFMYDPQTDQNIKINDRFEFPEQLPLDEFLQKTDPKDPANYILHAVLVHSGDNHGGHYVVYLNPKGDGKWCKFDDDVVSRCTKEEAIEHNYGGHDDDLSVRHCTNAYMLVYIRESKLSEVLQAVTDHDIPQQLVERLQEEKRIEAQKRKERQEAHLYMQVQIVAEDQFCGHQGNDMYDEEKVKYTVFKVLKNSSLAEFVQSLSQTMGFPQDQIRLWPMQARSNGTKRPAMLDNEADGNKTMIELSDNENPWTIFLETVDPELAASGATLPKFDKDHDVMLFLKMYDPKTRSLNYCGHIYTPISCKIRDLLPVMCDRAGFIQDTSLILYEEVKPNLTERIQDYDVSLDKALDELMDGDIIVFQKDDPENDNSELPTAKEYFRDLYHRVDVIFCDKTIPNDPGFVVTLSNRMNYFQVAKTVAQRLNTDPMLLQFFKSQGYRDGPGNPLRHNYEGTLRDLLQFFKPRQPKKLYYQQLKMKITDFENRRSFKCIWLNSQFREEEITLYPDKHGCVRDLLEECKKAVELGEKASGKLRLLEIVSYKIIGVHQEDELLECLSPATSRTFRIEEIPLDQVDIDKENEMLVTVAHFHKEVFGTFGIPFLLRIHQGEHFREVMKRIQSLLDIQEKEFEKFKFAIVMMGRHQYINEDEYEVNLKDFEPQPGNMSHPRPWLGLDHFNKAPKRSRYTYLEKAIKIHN
T1 sequence (Q93009 whole entry): as above
USP7 catalytic domain, sequence (Q93009 214-521 limits assumed): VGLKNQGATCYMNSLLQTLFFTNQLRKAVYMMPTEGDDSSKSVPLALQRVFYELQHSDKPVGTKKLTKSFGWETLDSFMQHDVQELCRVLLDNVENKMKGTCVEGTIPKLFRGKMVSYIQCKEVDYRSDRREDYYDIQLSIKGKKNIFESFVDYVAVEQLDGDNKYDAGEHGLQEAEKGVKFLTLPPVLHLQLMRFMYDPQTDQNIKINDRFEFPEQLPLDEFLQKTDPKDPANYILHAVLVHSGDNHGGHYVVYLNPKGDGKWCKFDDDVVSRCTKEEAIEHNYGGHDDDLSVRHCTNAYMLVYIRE

`CCc1c(-c2ccc(O)cc2)cnc(N)c1-c1ccc(O)cc1` [Compound 2, 4-[6-amino-4-ethyl-5-(4-hydroxyphenyl)-3-pyridyl]phenol]: the IC50 was found to be 4.6 µM in experiment [1] and 3 µM in experiment [2].
On the same counts, the results for `Nc1ncc(-c2ccc(O)cc2)c(C(F)(F)F)c1-c1ccc(O)cc1` [Compound 5, 4-[6-amino-5-(4-hydroxyphenyl)-4-(trifluoromethyl)-3-pyridyl]phenol] are 7.1 µM and 6 µM.
For `Nc1ncc(-c2ccc(O)cc2)c(C2CC2)c1-c1ccc(O)cc1` [Compound 9, 4-[6-amino-4-cyclopropyl-5-(4-hydroxyphenyl)-3-pyridyl]phenol], the IC50 in experiment [2] came to 56.6 µM.
As for `CCc1c(-c2ccc(O)cc2)cnc(N)c1-c1ccc(OC)cc1F` [Compound 10, 4-[6-amino-4-ethyl-5-(2-fluoro-4-methoxy-phenyl)-3-pyridyl]phenol], the IC50 in experiment [1] came to 13 µM; in experiment [2], 7.5 µM.
As for `CCc1c(-c2ccc(O)cc2)cnc(N)c1-c1ccc(O)cc1F` [Compound 11, 4-[2-amino-4-ethyl-5-(4-hydroxyphenyl)-3-pyridyl]-3-fluoro-phenol], the IC50 in experiment [2] was more than 20 µM.
Same read-out and setting: as for `CCc1c(-c2cccc(CN(C)C)c2)cnc(N)c1-c1ccc(O)cc1` [Compound 12, 4-[2-amino-5-[3-[(dimethylamino)methyl]phenyl]-4-ethyl-3-pyridyl]phenol], the figure is 23.9 µM.
As to `CCc1c(-c2ccc(O)cc2)cnc(N)c1-c1ccc(COC)cc1` [Compound 25, 4-[6-amino-4-ethyl-5-[4-(methoxymethyl)phenyl]-3-pyridyl]phenol], the IC50 was more than 63.3 µM against USP7, more than 63.3 µM on USP7 catalytic domain, more than 200 µM against USP47 and more than 200 µM against USP5. The “selectivity of antagonism of USP7 catalytic activity over the DUBs evaluated” value on USP7 is recorded as “ineffective in antagonizing the activity of any DUB evaluated”. Also, the “stabilization of p53 and p21 (western blot)” value (from here on “stabilization of p53 and p21”) in experiment [3] is “stabilize p53 and p21”.
`CCc1c(-c2ccc(C(N)=O)cc2)cnc(N)c1-c1ccc(O)cc1` [Compound 45, 4-[6-amino-4-ethyl-5-(4-hydroxyphenyl)-3-pyridyl]benzamide]: the IC50 in experiment [1] was 2.6 µM; against USP7, 2.9 µM; at USP7 catalytic domain it was 1.3 µM; against USP47 it was more than 200 µM; at USP5, more than 200 µM. Further, the “selectivity of antagonism of USP7 catalytic activity over the DUBs evaluated” value at USP7 is “selective antagonists of USP7 catalytic activity”. In experiment [3], the “stabilization of p53 and p21” value is on record as “not”.
On to `CCc1c(-c2ccc(C(=O)NC)cc2)cnc(N)c1-c1ccc(O)cc1` [Compound 81, 4-[6-amino-4-ethyl-5-(4-hydroxyphenyl)-3-pyridyl]-N-methyl-benzamide], for which the IC50 in experiment [1] was 3.3 µM; at USP7 it was 1.4 µM; at USP7 catalytic domain, 0.53 µM; at USP47, more than 200 µM.
Take `CCc1c(-c2ccc(C(=O)NC)nc2)cnc(N)c1-c1ccc(O)cc1` [Compound 92, 5-[6-amino-4-ethyl-5-(4-hydroxyphenyl)-3-pyridyl]-N-methyl-pyridine-2-carboxamide]: in experiment [1], the 50% inhibitory concentration (IC50) worked out at 1.5 µM. Also, the “stabilization of p53 and p21” value in experiment [3] is “stabilize p53 and p21”.
